This passage reports melting point results from a melting point compilation (Tetko et al.).

As usually defined, the melting point is the temperature of the solid-liquid transition. For `O=C(O)C1(C2=CCCCC2)CCCCC1`, the melting point was determined as 79 °C.
`Cc1ccc(NC(=S)Nc2ccc(C)cc2)cc1`: the melting point is 183 °C.
Then `CC(C)=CCCC(C)=CC=CC(C)=CC=CC(C)=CC=CC=C(C)C=CC=C(C)C=CC=C(C)CCCC(C)(C)O`, with 171 °C; and `Brc1cc(Br)c(Br)c(Br)c1`, with 99.5 °C; and `CC(C)C/C(Cc1ccccc1)=N\NC(N)=O`, with 89 °C.
Then `O=C(NCc1ccccc1)C(C(F)(F)F)C(F)(F)F`, with 194 °C; and `IC12CC3CC(CC(C3)C1)C2`, with 75.5 °C.
With `O=Cc1ccc(-c2cc(C(F)(F)F)cc(C(F)(F)F)c2)o1`, the melting point is 109 to 110 °C.
In turn, `COc1ccc(-n2nc(C(=O)c3cccs3)s/c2=N/C(=O)c2ccccc2)cc1` returned a melting point of 235 °C.
For `CC(=O)SCC(Cc1ccccc1)C(=O)NCC(=O)OCc1ccccc1` (configuration not stated) the value was 89 °C.
`NS(=O)(=O)c1ccc(N2CCCCS2(=O)=O)cc1` came in with a melting point of 180 °C.
For `O=C1c2ccc(O)cc2C(=O)c2ccc(O)cc21` the value was 300 °C; for `COc1ccc(C=C(S)C(=O)O)cc1`, 140 °C; for `O=C(Nc1cccnc1Cl)c1ccccc1`, 91 to 92 °C.
For `S=C=NC12CC3CC(CC(C3)C1)C2` the value was 166 to 168 °C; for `CC(C)C(Br)C(=O)NC(N)=O` (configuration not stated), 154 °C.
For `O=C(O)C1CCC(c2ccccc2)CC1C(=O)O` (configuration not stated) the value was 185 to 190 °C.
Take `O=[N+]([O-])c1cc(F)c(Br)cc1F`: the melting point is 56 °C.
For `COc1ccccc1-c1nnc2n1CN(C(C)C)CS2` the value was 207 °C; for `N#Cc1ccncc1C#N`, 80 °C.
For `NNC(=O)c1ccc(-c2ccccc2)cc1`, the melting point was found to be 194 °C.
Then `CC(CO)c1c(O)c(O)c2c(c1O)C(=O)C(=O)C1C2(C)CCC(O)C1(C)C` (configuration not stated), with 214 to 216 °C; and `CNc1cc(=O)oc2ccccc12`, with 198 °C; and `Cn1cnc2ccccc21`, with 61 °C.
Then `CNC(=O)ON=C(C)SC`, with 78 °C.
For `O=C(O)c1cccc(-c2nccs2)c1` the value was 160 to 162 °C.
Turning to `Cc1cnc(Cl)nc1Cl`, the melting point came out at 26 °C.
Then `CCCc1cc(C(C)=O)c(O)cc1O`, with 99 to 101 °C; and `Cc1ccc(O)cc1Br`, with 56 °C.
Regarding `O=Cc1cc(F)ccc1O`, the melting point was determined as 84 °C.
For the molecule `CC(=O)c1c(-c2ccc(Cl)cc2Cl)noc1C`, the melting point was in the range of 55 to 59 °C.
Take `O=[N+]([O-])c1cc([N+](=O)[O-])c(C(Cl)C(Cl)c2ccccc2)cc1/C=C\c1ccccc1` (configuration not stated): the melting point turned out to be 181 °C.
Molecule `O=C(O)c1cc(Br)c(Br)s1` yielded a melting point of 230 °C.
Consider `CCCCCC(=O)Cl`, for which the melting point is -87 °C.
Regarding `COc1ccc(OC)c(CCl)c1`, the melting point lay within 69 to 71 °C.
Molecule `C=CCn1c(N)cc(=O)n(CC)c1=O` showed a melting point of 143 °C.
Then `N#C/C(=C/c1cccnc1)c1nc(-c2ccc(Cl)cc2)cs1`, with 253 °C.
In the case of `CC(C)COC(=O)c1ccc(C(=O)OCC(C)C)cc1`, the melting point turned out to be 55 °C.
Then `CCCCCCCCCCCCCc1ccccc1`, with 10 °C.
As for `CCOC(=O)N1CCNCC1`, the melting point was 120 °C.
Then `Clc1ccc(Oc2ccc(Cl)cc2)cc1`, with 30 °C; and `O=C(Cc1ccccc1)NC(CO)c1ccccc1` (configuration not stated), with 140 °C; and `C[Si](C)(C)CC(=O)O`, with 41 °C.
With `O=C(C1=NOC2C(=O)N(c3cc(Cl)ccc3Cl)C(=O)C12)c1ccc([N+](=O)[O-])cc1` (configuration not stated), the melting point was determined as 216 °C.
Then `O=Cc1c2ccccc2cc2ccccc12`, with 105 °C.
As to `CCCCCCCCCCCCl`, the melting point was -17 °C.
In turn, `CC(C)(C)N(NC(=O)c1ccc(Cl)cc1)C(=O)c1ccccc1` came in with a melting point of 200 °C.
Consider `CC(C)(C)NCC(O)c1cc(O)cc(O)c1` (configuration not stated), for which the melting point stood at 119 °C.
For `O=C(O)c1cc2cc([N+](=O)[O-])ccc2o1` the value was 274 to 275 °C; for `COC(=O)c1cc(C)n(CO)n1`, 89 °C; for `Sc1nnc(-c2ccco2)n1-c1ccc2c(c1)OCCO2`, 237 to 240 °C.
With `CC(=O)NC1C(Oc2ccccc2[N+](=O)[O-])OC(CO)C(O)C1O` (configuration not stated), the melting point was 204 to 208 °C.
For `OCC1OC(OC2C(CO)OC(O)C(O)C2O)C(O)C(O)C1O` (configuration not stated) the value was 256 to 258 °C; for `Clc1cc2c(cc1Cl)Oc1c(cc(Cl)c(Cl)c1Cl)O2`, 240 °C.
`CC(C)S(=O)(=O)c1cnc(-c2ccccn2)nc1N` came in with a melting point of 147 to 150 °C.
For `CC(C)(C)OC(=O)NC1(C(=O)O)CCCCC1`, the melting point is 177 °C.
`COC(=O)c1ccc(OC)c(OC2CCCC2)c1` returned a melting point of 59 to 61 °C.
Then `CCOc1cccc(/C=C/C(=O)O)c1`, with 133 °C; and `CCOC(=O)C=C1SC(N2CCCCC2)C(=O)N1CC` (configuration not stated), with 86 °C.
For `Cc1cc(Cl)c(N=C=O)cc1N=C=O` the value was 62 °C; for `Oc1c(-c2ccccn2)n(N2CCCCC2)c2ccccc12`, 185 °C.
Consider `O=C(O)c1csc(-c2ccc(C(F)(F)F)cc2)n1`, for which the melting point fell in the range of 186 to 188 °C.
In the case of `Nc1c(Br)cc(Cl)cc1Br`, the melting point fell in the range of 93 to 95 °C.
The molecule `Cc1ccnc(Cl)n1` gave a melting point of 47 °C.
For `CCOC(=O)C1=C(C)NC(C)=C(C(=O)OCC)C1c1ccco1` the value was 164 °C; for `Cc1n[nH]c(C)c1-c1ccccc1C(=O)O`, 256 °C; for `O=[N+]([O-])C=Cc1cccc([N+](=O)[O-])c1`, 126 °C.
Then `Cc1nc2cc(C)c(C)cc2o1`, with 93.5 to 94 °C; and `CCOC(=O)Cc1ccc([N+](=O)[O-])cc1`, with 64 °C; and `N=C1N=C2CCC(c3ccccc3)=NN2CN1`, with 240 to 242 °C.
Molecule `O=[N+]([O-])c1cccc(S(=O)(=O)NCCNS(=O)(=O)c2cccc([N+](=O)[O-])c2)c1` showed a melting point of 190 °C.
In the case of `CNS(=O)(=O)c1ccc(C)cc1`, the melting point was 78.5 °C.
Then `CC(=O)N1C(=O)/C(=C(\C#Cc2ccccc2)C(=O)c2ccccc2)c2ccccc21`, with 189 °C; and `Cc1ccc(C#N)c(N)c1`, with 92 to 93 °C.
Molecule `O=C(NCc1ccccn1)c1cc([N+](=O)[O-])cc([N+](=O)[O-])c1` yielded a melting point of 120 °C.
As for `CCCCCCCCNCCCCCCCC`, the melting point is 35.5 °C.
Consider `COc1ccc(CCN2CC(C(=O)O)CC2=O)cc1OC` (configuration not stated), for which the melting point fell in the range of 127 to 131 °C.
`CC12CCC(CC/C1=N\Nc1ccc([N+](=O)[O-])cc1[N+](=O)[O-])C2(C)C` (configuration not stated) yielded a melting point of 232 to 233 °C.
Take `C#CC1(O)CCC2C3C(C)CC4=C(CCC(=O)C4)C3CCC21C` (configuration not stated): the melting point was found to be 167 °C.
For `CCOC(=O)C(C)(/C=C1\C(=O)C2(C)CCC1C2(C)C)/C=C1\C(=O)C2(C)CCC1C2(C)C` (configuration not stated) the value was 118 °C; for `S=C=Nc1c(Cl)c(Cl)cc(Cl)c1Cl`, 88 to 90 °C; for `CC(C)(C)Oc1ccccc1`, -24 °C.
Consider `CCOc1ccc(Br)cc1C=O`, for which the melting point was 69 °C.
In turn, `CC(=NO)c1ccc(Cl)cc1Cl` displayed a melting point of 148 to 151 °C.
Turning to `Ic1ccc(Cn2cncn2)cc1`, the melting point was in the range of 82 to 84 °C.
`Cc1ccc2sc(Br)cc2c1` gave a melting point of 92 to 93 °C.
With `Cc1ccc(S(=O)(=O)N(Cl)Cl)cc1`, the melting point is 83 °C.
The molecule `O=C(O)c1cc(Br)cnc1Br` displayed a melting point of 184 to 185 °C.
Turning to `ON(Cc1ccccc1)Cc1ccccc1`, the melting point stood at 123 °C.
Then `CC1CCCC(=O)C1` (configuration not stated), with -73 °C; and `BrCCOc1ccc(Br)cc1`, with 56 to 57 °C; and `c1ccc(N2CCNCC2)cc1`, with 18.8 °C.
For `O=C(CI)OC(=O)CI`, the melting point fell in the range of 43 to 49 °C.
Molecule `C/C(=N\NC(N)=O)C1=CC[C@]2(C)C3CCC4=C(CCC4(C)C)C3CC[C@H]2C1` (some centres not stated) came in with a melting point of 239 °C.
With `CSC(=NOC(=O)N(C)C=C1C=NC=N1)C(=O)N(C)C`, the melting point was 252 °C.
Then `Oc1ccc(Oc2ccc(O)cc2)cc1`, with 163 to 168 °C; and `COc1ccc2nc(NN)nnc2c1`, with 238 to 240 °C; and `CC(C)(C)OC(=O)NCC1CCNCC1`, with 106 to 108 °C.
For `CCN1CCN(C(=O)NC(C(=O)NC2C(=O)N3C(C(=O)O)=C(CSc4nnnn4C)CSC23)c2ccc(O)cc2)C(=O)C1=O` (configuration not stated) the value was 169 °C.
Then `COc1ccc(-c2ccc(S(=O)(=O)NCCC(=O)O)cc2)cc1`, with 190 °C; and `Clc1ccc2cccc(Cl)c2c1`, with 63.5 °C.
The molecule `O=CC=CC=Cc1ccccc1` displayed a melting point of 42.5 °C.
For `COc1cccc(OCC(=O)O)c1` the value was 118 °C.
Then `C=CC1(OC(C)=O)CCC2(C)C(CCC3C2CCC2(C)C3CCC23OCCO3)C1` (configuration not stated), with 101 to 109 °C.
Then `c1ccc(Cc2cc3ccccc3cn2)cc1`, with 64 °C; and `Nc1cccc2nsnc12`, with 68 °C.
The molecule `CCCCCCCCCCCCSC(C(=O)Nc1cc(C)c(O)c(C)c1C)c1ccccc1` (configuration not stated) yielded a melting point of 130 °C.
`c1ccc(COc2ccc3cc[nH]c3c2)cc1` registered a melting point of 115 °C.
In turn, `CCOC(=O)C(C#N)=Cc1ccccc1Cl` displayed a melting point of 88 °C.
The molecule `Cc1ccc(C#N)cc1C` gave a melting point of 67 to 69 °C.
Then `CC1=C(C(=O)O)CCC1(C)C`, with 135 °C; and `CC(=CCNc1ncnc2c1ncn2C1OC(CO)C(O)C1O)CO` (configuration not stated), with 179 to 180 °C.
